Molecular target: T1, SMARCA2 (Homo sapiens, UniProt P51531)
T1 construct: endogenous in cells
Test: SMARCA2 HiBiT degradation assay (cellular)
Format: cell-based
Conditions: for Emax: A549, Emax = amount of residual protein remaining in the cell following compound treatment; for DC50: SMARCA2 HiBiT cells, luminescence readout, 11-point titration from 10 μM, 6 hours or 16 hours, read-out: HiBit A549 SMARCA2 IP

T1 sequence (P51531 whole entry): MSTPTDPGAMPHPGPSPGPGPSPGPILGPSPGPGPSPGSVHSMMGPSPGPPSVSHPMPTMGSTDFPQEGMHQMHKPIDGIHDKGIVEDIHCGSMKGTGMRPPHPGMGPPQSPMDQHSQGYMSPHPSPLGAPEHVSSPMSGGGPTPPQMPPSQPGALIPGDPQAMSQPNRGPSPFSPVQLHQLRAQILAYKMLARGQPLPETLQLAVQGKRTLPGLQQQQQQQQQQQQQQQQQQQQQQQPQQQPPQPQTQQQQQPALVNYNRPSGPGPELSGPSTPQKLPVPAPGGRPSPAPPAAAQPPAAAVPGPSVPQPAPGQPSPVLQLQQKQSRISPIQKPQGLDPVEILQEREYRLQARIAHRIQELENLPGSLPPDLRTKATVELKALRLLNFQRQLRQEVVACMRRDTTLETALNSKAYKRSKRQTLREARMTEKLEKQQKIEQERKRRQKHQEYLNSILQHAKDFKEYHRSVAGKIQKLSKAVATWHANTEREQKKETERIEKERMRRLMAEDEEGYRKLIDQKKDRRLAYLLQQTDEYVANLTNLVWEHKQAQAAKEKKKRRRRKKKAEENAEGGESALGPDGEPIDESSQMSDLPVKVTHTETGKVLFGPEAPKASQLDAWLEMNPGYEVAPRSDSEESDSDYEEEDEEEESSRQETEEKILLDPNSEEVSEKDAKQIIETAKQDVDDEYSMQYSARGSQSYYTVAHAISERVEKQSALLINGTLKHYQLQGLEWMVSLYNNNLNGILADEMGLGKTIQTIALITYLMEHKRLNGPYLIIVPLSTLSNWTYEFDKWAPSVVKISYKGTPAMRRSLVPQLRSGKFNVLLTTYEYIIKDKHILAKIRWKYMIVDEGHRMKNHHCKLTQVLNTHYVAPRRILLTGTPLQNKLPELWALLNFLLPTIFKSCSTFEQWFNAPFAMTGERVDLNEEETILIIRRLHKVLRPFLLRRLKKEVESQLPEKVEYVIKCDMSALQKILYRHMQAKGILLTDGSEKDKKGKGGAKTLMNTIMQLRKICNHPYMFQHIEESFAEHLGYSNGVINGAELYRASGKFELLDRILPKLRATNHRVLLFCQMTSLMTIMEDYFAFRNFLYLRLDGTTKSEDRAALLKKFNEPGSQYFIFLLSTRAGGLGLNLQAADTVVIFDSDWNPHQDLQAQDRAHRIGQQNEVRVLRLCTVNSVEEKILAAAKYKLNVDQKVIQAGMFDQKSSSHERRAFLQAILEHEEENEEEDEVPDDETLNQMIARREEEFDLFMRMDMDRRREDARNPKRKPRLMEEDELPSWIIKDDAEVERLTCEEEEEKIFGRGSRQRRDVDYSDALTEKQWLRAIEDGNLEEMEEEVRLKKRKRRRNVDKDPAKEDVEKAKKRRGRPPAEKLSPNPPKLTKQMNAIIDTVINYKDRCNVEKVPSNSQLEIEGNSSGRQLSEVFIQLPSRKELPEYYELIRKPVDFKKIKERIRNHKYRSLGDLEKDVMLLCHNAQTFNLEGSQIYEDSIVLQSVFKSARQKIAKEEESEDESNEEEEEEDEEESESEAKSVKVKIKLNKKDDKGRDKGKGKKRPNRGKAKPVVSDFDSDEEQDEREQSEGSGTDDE

| Compound | Emax [%] | DC50 [µM] |
| --- | --- | --- |
| Cc1ncsc1-c1ccc([C@H](C)NC(=O)[C@@H]2C[C@@H](O)CN2C(=O)[C@@H](NC(=O)CCCCCC(=O)N(C)CC(COc2cc(-c3ccccc3O)nnc2N)c2ccccc2)C(C)(C)C)cc1 (mixture of isomers) [Example 21, N′-[3-[3-amino-6-(2-hydroxyphenyl)pyridazin-4-yl]oxy-2-phenyl-propyl]-N′-methyl-N-[rac-(1S)-2,2-dimethyl-1-[rac-(2S,4R)-4-hydroxy-2-[[rac-(1S)-1-[4-(4-methylthiazol-5-yl)phenyl]ethyl]carbamoyl]pyrrolidine-1-carbonyl]propyl]heptanediamide] | 19 | 1.01 |
| Cc1ncsc1-c1ccc([C@H](C)NC(=O)[C@@H]2C[C@@H](O)CN2C(=O)[C@@H](NC(=O)CCCCCCCCCCC(=O)N(C)CC(COc2cc(-c3ccccc3O)nnc2N)c2ccccc2)C(C)(C)C)cc1 (mixture of isomers) [Example 22, N′-[3-[3-amino-6-(2-hydroxyphenyl)pyridazin-4-yl]oxy-2-phenyl-propyl]-N′-methyl-N-[rac-(1S)-2,2-dimethyl-1-[rac-(2S,4R)-4-hydroxy-2-[[rac-(1S)-1-[4-(4-methylthiazol-5-yl)phenyl]ethyl]carbamoyl]pyrrolidine-1-carbonyl]propyl]dodecanediamide] | 27 | 0.455 |
| Cc1ncsc1-c1ccc([C@H](C)NC(=O)[C@@H]2C[C@@H](O)CN2C(=O)[C@@H](NC(=O)CCOCCOCCC(=O)N(C)CC(COc2cc(-c3ccccc3O)nnc2N)c2ccccc2)C(C)(C)C)cc1 (mixture of isomers) [Example 24, rac-(2S,4R)-4-hydroxy-1-[rac-(2S)-2-[3-[2-[3-[[3-[3-amino-6-(2-hydroxyphenyl)pyridazin-4-yl]oxy-2-phenyl-propyl]-methyl-amino]-3-oxo-propoxy]ethoxy]propanoylamino]-3,3-dimethyl-butanoyl]-N-[rac-(1S)-1-[4-(4-methylthiazol-5-yl)phenyl]ethyl]pyrrolidine-2-carboxamide] | 42 | 2.85 |
| Cc1ncsc1-c1ccc([C@H](C)NC(=O)[C@@H]2C[C@@H](O)CN2C(=O)[C@@H](NC(=O)CCCCCC(=O)N(C)CCCN(C)c2ccc(CCOc3cc(-c4ccccc4O)nnc3N)cc2)C(C)(C)C)cc1 (racemic) [Example 26, N′-[3-[4-[2-[3-amino-6-(2-hydroxyphenyl)pyridazin-4-yl]oxyethyl]-N-methyl-anilino]propyl]-N′-methyl-N-[rac-(1S)-2,2-dimethyl-1-[rac-(2S,4R)-4-hydroxy-2-[[rac-(1S)-1-[4-(4-methylthiazol-5-yl)phenyl]ethyl]carbamoyl]pyrrolidine-1-carbonyl]propyl]heptanediamide] | 60 | 1.44 |
| Cc1ncsc1-c1ccc([C@H](C)NC(=O)[C@@H]2C[C@@H](O)CN2C(=O)[C@@H](NC(=O)CCCCCCCCC(=O)N(C)CCCN(C)c2ccc(CCOc3cc(-c4ccccc4O)nnc3N)cc2)C(C)(C)C)cc1 (racemic) [Example 28, N′-[3-[4-[2-[3-amino-6-(2-hydroxyphenyl)pyridazin-4-yl]oxyethyl]-N-methyl-anilino]propyl]-N′-methyl-N-[rac-(1S)-2,2-dimethyl-1-[rac-(2S,4R)-4-hydroxy-2-[[rac-(1S)-1-[4-(4-methylthiazol-5-yl)phenyl]ethyl]carbamoyl]pyrrolidine-1-carbonyl]propyl]decanediamide] | 46 | 0.515 |
| Cc1ncsc1-c1ccc([C@H](C)NC(=O)[C@@H]2C[C@@H](O)CN2C(=O)[C@@H](NC(=O)CCOCCOCCC(=O)N2CCN(c3ccc(N4CCCC(Oc5cc(-c6ccccc6O)nnc5N)C4)cc3)CC2)C(C)(C)C)cc1 (mixture of isomers) [Example 34, rac-(2S,4R)-4-hydroxy-1-[rac-(2S)-2-[3-[2-[3-[4-[4-[3-[3-amino-6-(2-hydroxyphenyl)pyridazin-4-yl]oxy-1-piperidyl]phenyl]piperazin-1-yl]-3-oxo-propoxy]ethoxy]propanoylamino]-3,3-dimethyl-butanoyl]-N-[rac-(1S)-1-[4-(4-methylthiazol-5-yl)phenyl]ethyl]pyrrolidine-2-carboxamide] | 47 | 1.1 |
| Cc1ncsc1-c1ccc([C@H](C)NC(=O)[C@@H]2C[C@@H](O)CN2C(=O)[C@@H](NC(=O)CCOCCC(=O)N2CCN(c3ccc(CN4CCCC(Oc5cc(-c6ccccc6O)nnc5N)C4)cc3)CC2)C(C)(C)C)cc1 (mixture of isomers) [Example 38, rac-(2S,4R)-4-hydroxy-1-[rac-(2S)-2-[3-[3-[4-[4-[[3-[3-amino-6-(2-hydroxyphenyl)pyridazin-4-yl]oxy-1-piperidyl]methyl]phenyl]piperazin-1-yl]-3-oxo-propoxy]propanoylamino]-3,3-dimethyl-butanoyl]-N-[rac-(1S)-1-[4-(4-methylthiazol-5-yl)phenyl]ethyl]pyrrolidine-2-carboxamide] | 70 | 0.589 |

These reach a lower DC50. Values come first.

| Emax [%] | DC50 [µM] | Compound |
| --- | --- | --- |
| 38 | 0.428 | Cc1ncsc1-c1ccc([C@H](C)NC(=O)[C@@H]2C[C@@H](O)CN2C(=O)[C@@H](NC(=O)CCCCCCCCCCCCC(=O)N(C)CC(COc2cc(-c3ccccc3O)nnc2N)c2ccccc2)C(C)(C)C)cc1 (mixture of isomers) [Example 23, N′-[3-[3-amino-6-(2-hydroxyphenyl)pyridazin-4-yl]oxy-2-phenyl-propyl]-N′-methyl-N-[rac-(1S)-2,2-dimethyl-1-[rac-(2S,4R)-4-hydroxy-2-[[rac-(1S)-1-[4-(4-methylthiazol-5-yl)phenyl]ethyl]carbamoyl]pyrrolidine-1-carbonyl]propyl]tetradecanediamide] |
| 48 | 0.426 | Cc1ncsc1-c1ccc([C@H](C)NC(=O)[C@@H]2C[C@@H](O)CN2C(=O)[C@@H](NC(=O)CCC(=O)N2CCN(c3ccc(CN4CCCC(Oc5cc(-c6ccccc6O)nnc5N)C4)cc3)CC2)C(C)(C)C)cc1 (mixture of isomers) [Example 39, rac-(2S,4R)-4-hydroxy-1-[rac-(2S)-2-[[4-[4-[4-[[3-[3-amino-6-(2-hydroxyphenyl)pyridazin-4-yl]oxy-1-piperidyl]methyl]phenyl]piperazin-1-yl]-4-oxo-butanoyl]amino]-3,3-dimethyl-butanoyl]-N-[rac-(1S)-1-[4-(4-methylthiazol-5-yl)phenyl]ethyl]pyrrolidine-2-carboxamide] |
| 46 | 0.349 | Cc1ncsc1-c1ccc([C@H](C)NC(=O)[C@@H]2C[C@@H](O)CN2C(=O)[C@@H](NC(=O)CCCCCC(=O)N2CCN(c3ccc(CN4CCCC(Oc5cc(-c6ccccc6O)nnc5N)C4)cc3)CC2)C(C)(C)C)cc1 (mixture of isomers) [Example 40, rac-(2S,4R)-4-hydroxy-1-[rac-(2S)-2-[[7-[4-[4-[[3-[3-amino-6-(2-hydroxyphenyl)pyridazin-4-yl]oxy-1-piperidyl]methyl]phenyl]piperazin-1-yl]-7-oxo-heptanoyl]amino]-3,3-dimethyl-butanoyl]-N-[rac-(1S)-1-[4-(4-methylthiazol-5-yl)phenyl]ethyl]pyrrolidine-2-carboxamide] |
| 19 | 0.348 | Cc1ncsc1-c1ccc([C@H](C)NC(=O)[C@@H]2C[C@@H](O)CN2C(=O)[C@@H](NC(=O)CCCCCCCCC(=O)N(C)CC(COc2cc(-c3ccccc3O)nnc2N)c2ccccc2)C(C)(C)C)cc1 (mixture of isomers) [Example 25, N′-[3-[3-amino-6-(2-hydroxyphenyl)pyridazin-4-yl]oxy-2-phenyl-propyl]-N′-methyl-N-[rac-(1S)-2,2-dimethyl-1-[rac-(2S,4R)-4-hydroxy-2-[[rac-(1S)-1-[4-(4-methylthiazol-5-yl)phenyl]ethyl]carbamoyl]pyrrolidine-1-carbonyl]propyl]decanediamide] |
| 33 | 0.33 | Cc1ncsc1-c1ccc([C@H](C)NC(=O)[C@@H]2C[C@@H](O)CN2C(=O)[C@@H](NC(=O)CCCCCCCCCCC(=O)N(C)CCCN(C)c2ccc(CCOc3cc(-c4ccccc4O)nnc3N)cc2)C(C)(C)C)cc1 (racemic) [Example 27, N′-[3-[4-[2-[3-amino-6-(2-hydroxyphenyl)pyridazin-4-yl]oxyethyl]-N-methyl-anilino]propyl]-N′-methyl-N-[rac-(1S)-2,2-dimethyl-1-[rac-(2S,4R)-4-hydroxy-2-[[rac-(1S)-1-[4-(4-methylthiazol-5-yl)phenyl]ethyl]carbamoyl]pyrrolidine-1-carbonyl]propyl]dodecanediamide] |
| 20 | 0.119 | Cc1ncsc1-c1ccc([C@H](C)NC(=O)[C@@H]2C[C@@H](O)CN2C(=O)[C@@H](NC(=O)CCCCCC(=O)N2CCN(c3ccc(N4CCCC(Oc5cc(-c6ccccc6O)nnc5N)C4)cc3)CC2)C(C)(C)C)cc1 (mixture of isomers) [Example 32, rac-(2S,4R)-4-hydroxy-1-[rac-(2S)-2-[[7-[4-[4-[3-[3-amino-6-(2-hydroxyphenyl)pyridazin-4-yl]oxy-1-piperidyl]phenyl]piperazin-1-yl]-7-oxo-heptanoyl]amino]-3,3-dimethyl-butanoyl]-N-[rac-(1S)-1-[4-(4-methylthiazol-5-yl)phenyl]ethyl]pyrrolidine-2-carboxamide] |
| 22 | 0.073 | Cc1ncsc1-c1ccc([C@H](C)NC(=O)[C@@H]2C[C@@H](O)CN2C(=O)[C@@H](NC(=O)CCCCCCCCC(=O)N2CCN(c3ccc(N4CCCC(Oc5cc(-c6ccccc6O)nnc5N)C4)cc3)CC2)C(C)(C)C)cc1 (mixture of isomers) [Example 33, rac-(2S,4R)-4-hydroxy-1-[rac-(2S)-2-[[10-[4-[4-[3-[3-amino-6-(2-hydroxyphenyl)pyridazin-4-yl]oxy-1-piperidyl]phenyl]piperazin-1-yl]-10-oxo-decanoyl]amino]-3,3-dimethyl-butanoyl]-N-[rac-(1S)-1-[4-(4-methylthiazol-5-yl)phenyl]ethyl]pyrrolidine-2-carboxamide] |

Source: patent US20230002367A1, “BIFUNCTIONAL COMPOUNDS” (Hoffmann-La Roche Inc., priority 2019, published 2023)
